Experiment: 19F magnetic resonance imaging in vivo: tracking isoflurane in rat brain
Conditions: live Sprague-Dawley rat
From the text: A MR system is utilized for this representative imaging experiment.
Here, indirect inverse irradiation focused on 19F is utilized to provide rapid and specific identification of the target molecule of interest while observing 1H, while circulating in a subject organism.
A live Sprague-Dawley rat was secured in the bed of the representative holding assembly of Example 1B. The RF coil elements were situated such that the area around its head was encircled to provide complete coverage for the brain of the animal, then the assembly placed in the MRI system of Example 1C. Localization of the spin species of interest, 19F, was accomplished with a spin-echo (or, alternatively, gradient-echo) sequence preceded with a magnetization transfer (MT) pulse allowing magnetization from 19F to 1H. The rat was subjected to increasing stepwise amounts of isoflurane, an inhaled general anesthetic with chemical structure CF3-CHCl—O—CHF2, over 30 minutes (see Table 2), then the flow was halted.
Anatomical MR images were obtained also using a standard spin-echo (or alternatively, gradient-echo) sequence. The MT pulse duration and strength were maintained constant prior to the signal acquisition by the surface coil.

Question: For FC(F)OC(Cl)C(F)(F)F (centres unmarked) [isoflurane], which “19F signal seen in the brain (level of the drug reaching the CNS in real time)” value (inhaled isoflurane increased stepwise 1%-3% over 30 minutes, MT pulse 19F to 1H, FIG. 17) is on record?
Answer: increasing amount of 19F signal seen in the brain

Question: And the “concentration of isoflurane in the brain after cessation of anesthetic delivery” value (over the 30 minutes following cessation of anesthetic delivery (not shown))?
Answer: disappearance of the concentration of isoflurane in the brain could be observed

From patent US20210315474A1, “DECOUPLED COIL ASSEMBLIES, MAGNETIC RESONANCE SYSTEMS AND METHODS OF USE” (FluoID Inc, priority 2018, published 2021)
